Measurements taken from publication PMC2361651 (British Journal of Cancer, 2005).
Several values for one entry are separate records, joined by “and”; a condition that tells them apart may be missing. Equal entries are not always repeated. Where two headings read alike, the source gives them in different places.

Experiment: Plasma pharmacokinetics of SU5416 and metabolites in Phase I patients (HPLC UV)
Type: in vivo, human
Settings: twice weekly i.v. infusion; for clearance: read-out: CL (observed) (converted); for half-life: read-out: T1/2λz (converted); for Vd: read-out: Vz (observed)
Description: Samples were taken prior to treatment infusion, 15 min into the infusion, at completion of the infusion and then at 5, 10, 20, 30, 45, 60, 120 and 240 min following the infusion. […] At the designated times, 4.0 ml of blood were collected into a lithium heparin tube, gently inverted and placed on ice to maintain the sample at 2–8°C. All samples were immediately centrifuged at 6000 r.p.m. at 4°C for 10 min, the supernatant divided between two 1.5 ml Nalgene cryovials and snap frozen in liquid nitrogen. Separated plasma samples were subsequently stored at −70°C until analysis.
Pharmacokinetic analysis was performed using a fully validated HPLC UV method ([Stopeck et al, 2002]). Plasma samples, standards (25–2000 ng ml^−1) and quality controls spiked with internal standards were extracted with acetonitrile. Following centrifugation, drying and reconstitution in 200 μl mobile phase, 20 μl were analysed by HPLC UV. Chromatography was carried out using a C18 analytical column, with a gradient mobile phase containing acetonitrile and 10 mM ammonium formate at pH 2.6. The flow rate was 0.8 ml min^−1 and the run-time 21 min. Detection was via UV absorption at a wavelength of 440 nm. The accuracy of the assay, reflected in relative error of measured concentration to theoretical (prepared) concentrations, was between 0.9 and 5.6% for all quality control samples.
Pharmacokinetic parameters were evaluated using WinNonLin Software®.

[1] = human, plasma, iv, 85 mg m^−2, individual patients, dose 85 mg m^−2, cycle 1inj8
[2] = human, plasma, iv, 85 mg m^−2, individual patients, dose 85 mg m^−2, cycle 2inj8
[3] = human, plasma, iv, 110 mg m^−2, individual patients, dose 110 mg m^−2, cycle 1inj2
[4] = human, plasma, iv, 110 mg m^−2, individual patients, dose 110 mg m^−2, cycle 1inj8
[5] = individual patients, dose 48 mg m^−2, cycle 1inj2
[6] = individual patients, dose 48 mg m^−2, cycle 1inj8
[7] = individual patients, dose 65 mg m^−2, cycle 1inj2
[8] = individual patients, dose 65 mg m^−2, cycle 1inj8
[9] = individual patients, dose 85 mg m^−2, cycle 1inj2
[10] = individual patients, dose 85 mg m^−2, cycle 1inj8
[11] = individual patients, dose 110 mg m^−2, cycle 1inj2
[12] = individual patients, dose 145 mg m^−2, cycle 1inj2
[13] = individual patients, dose 145 mg m^−2, cycle 1inj8
[14] = individual patients, dose 145 → 190 mg m^−2, cycle 1inj2
[15] = individual patients, dose 145 → 190 mg m^−2, cycle 1inj8

Compound: Cc1cc(C)c(/C=C2\C(=O)Nc3ccccc32)[nH]1 [SU5416, Z-3-[(2,4-dimethylpyrrol-5-yl)methylidenyl]-2-indolinone]
- AUC(0-t) [1]: 2380 ng·h/mL
- clearance [1]: 1000 mL/min
- AUC(0-t) [2]: 1620 ng·h/mL
- clearance [2]: 1470 mL/min
- Cmax (human, plasma, iv, 85 mg m^−2, individual patients, dose 85 mg m^−2, cycle 2inj8, read-out: Cmax): 2800 ng/mL
- half-life [2]: 44.4 min
- Vd [2]: 94 L
- AUC(0-t) [3]: 4020 ng·h/mL
- clearance [3]: 767 mL/min
- Cmax (human, plasma, iv, 110 mg m^−2, individual patients, dose 110 mg m^−2, cycle 1inj2, read-out: Cmax): 3510 ng/mL
- half-life [3]: 37.2 min
- Vd [3]: 41 L
- AUC(0-t) [4]: 3800 ng·h/mL
- clearance [4]: 1400 mL/min
- Cmax (human, plasma, iv, 110 mg m^−2, individual patients, dose 110 mg m^−2, cycle 1inj8, read-out: Cmax): 3580 ng/mL
- half-life [4]: 37.2 min
- Vd [4]: 75 L
- AUClast [5]: 463 ng·h/mL and 848 ng·h/mL and 1143 ng·h/mL
- CL (observed) [5]: 181 L/h and 94 L/h and 83 L/h
- Cmax [5]: 2724 ng/mL and 2253 ng/mL
- T1/2λz [5]: 30.6 min and 36.6 min
- Vz (observed) [5]: 72 L
- CL (observed) [6]: 115 L/h
- Cmax [6]: 1289 ng/mL
- T1/2λz [6]: 25.2 min
- AUClast [7]: 2510 ng·h/mL
- CL (observed) [7]: 74 L/h
- Cmax [7]: 2968 ng/mL
- T1/2λz [7]: 49.2 min
- Vz (observed) [7]: 88 L
- AUClast [8]: 2068 ng·h/mL
- CL (observed) [8]: 89 L/h
- Cmax [8]: 2914 ng/mL
- T1/2λz [8]: 39 min
- Vz (observed) [8]: 84 L
- AUClast [9]: 1151 ng·h/mL and 2094 ng·h/mL
- CL (observed) [9]: 133 L/h and 102 L/h
- Cmax [9]: 1624 ng/mL and 2057 ng/mL
- T1/2λz [9]: 42.6 min
- Vz (observed) [9]: 45 L and 136 L and 104 L
- AUClast [10]: 1250 ng·h/mL
- Cmax [10]: 3672 ng/mL and 1354 ng/mL
- T1/2λz [10]: 36 min and 123 min
- Vz (observed) [10]: 52 L and 447 L
- AUClast [11]: 2345 ng·h/mL and 3842 ng·h/mL
- CL (observed) [11]: 70 L/h and 83 L/h
- Cmax [11]: 2750 ng/mL and 3237 ng/mL
- T1/2λz [11]: 41.4 min and 33 min
- Vz (observed) [11]: 70 L and 66 L
- AUClast [12]: 4946 ng·h/mL and 3471 ng·h/mL and 2021 ng·h/mL
- CL (observed) [12]: 55 L/h and 92 L/h and 150 L/h
- Cmax [12]: 4851 ng/mL and 2869 ng/mL and 1217 ng/mL
- T1/2λz [12]: 53.4 min and 42.6 min
- Vz (observed) [12]: 119 L and 153 L
- AUClast [13]: 2349 ng·h/mL
- CL (observed) [13]: 62 L/h and 169 L/h
- Cmax [13]: 2080 ng/mL
- T1/2λz [13]: 40.2 min
- Vz (observed) [13]: 51 L and 164 L
- AUClast [14]: 3389 ng·h/mL and 1928 ng·h/mL and 3683 ng·h/mL and 3397 ng·h/mL and 2621 ng·h/mL and 2870 ng·h/mL and 2465 ng·h/mL and 1267 ng·h/mL and 4094 ng·h/mL and 1578 ng·h/mL
- Cmax [14]: 4159 ng/mL and 2474 ng/mL and 2961 ng/mL and 2774 ng/mL and 2894 ng/mL and 2795 ng/mL and 3202 ng/mL and 1177 ng/mL and 4508 ng/mL and 2625 ng/mL
- T1/2λz [14]: 40.8 min and 30 min and 47.4 min and 39.6 min and 81.6 min and 40.2 min and 69 min and 22.8 min and 29.4 min and 41.4 min
- Vz (observed) [14]: 63 L and 70 L and 85 L and 196 L and 97 L and 119 L and 118 L and 39 L and 106 L
- Cmax [15]: 3370 ng/mL and 2274 ng/mL and 2066 ng/mL and 2161 ng/mL and 493 ng/mL and 4283 ng/mL
- Vz (observed) [15]: 57 L and 74 L and 176 L and 488 L and 214 L and 46 L
